Structures can show the parent of a compound that is named as a salt. Bounds are passed on as bounds.

Among the data in patent publication US11560371B2, “Cereblon binding compounds, compositions thereof, and methods of treatment therewith” (Celgene Corporation, priority 2020, dated 2023) are DC50 and Y values, retold here.

This assay addresses T1, AR (Homo sapiens, UniProt P10275).
T1 construct: endogenous in cells; host or cells: VCaP cells
T1 sequence (P10275 1-920): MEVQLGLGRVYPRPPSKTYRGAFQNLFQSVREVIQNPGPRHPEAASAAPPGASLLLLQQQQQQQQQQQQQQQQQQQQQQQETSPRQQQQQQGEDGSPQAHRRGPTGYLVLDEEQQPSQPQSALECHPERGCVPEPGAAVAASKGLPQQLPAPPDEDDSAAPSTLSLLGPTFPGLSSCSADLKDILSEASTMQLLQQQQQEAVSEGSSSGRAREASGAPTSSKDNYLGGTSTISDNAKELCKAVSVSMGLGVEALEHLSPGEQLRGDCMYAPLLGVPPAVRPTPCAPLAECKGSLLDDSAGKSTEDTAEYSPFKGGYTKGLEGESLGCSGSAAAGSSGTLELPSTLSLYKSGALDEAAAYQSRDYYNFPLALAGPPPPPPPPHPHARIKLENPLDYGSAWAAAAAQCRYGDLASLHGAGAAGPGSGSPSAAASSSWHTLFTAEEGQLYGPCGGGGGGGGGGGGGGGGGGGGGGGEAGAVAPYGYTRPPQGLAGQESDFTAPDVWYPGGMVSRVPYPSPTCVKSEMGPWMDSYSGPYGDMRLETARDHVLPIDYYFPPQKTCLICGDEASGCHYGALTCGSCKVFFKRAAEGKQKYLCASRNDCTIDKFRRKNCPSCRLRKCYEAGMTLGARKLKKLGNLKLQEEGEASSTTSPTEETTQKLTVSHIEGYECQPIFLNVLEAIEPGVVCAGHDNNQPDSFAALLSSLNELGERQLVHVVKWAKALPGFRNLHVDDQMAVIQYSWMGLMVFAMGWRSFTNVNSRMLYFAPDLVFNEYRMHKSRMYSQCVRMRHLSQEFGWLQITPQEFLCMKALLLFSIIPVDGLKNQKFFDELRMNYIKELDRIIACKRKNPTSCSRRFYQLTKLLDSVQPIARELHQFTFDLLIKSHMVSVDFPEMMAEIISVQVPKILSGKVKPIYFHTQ
Nature of the assay: VCAP AR Degradation Assay. The assay is classed as cell-based. The conditions noted are these: VCaP cells, 24 h, AR ELISA; for DC50: concentration of compound when AR level = 50% of DMSO control (50% AR degradation); for Y: lowest measured AR level normalized to DMSO control (AR degradation efficiency). How it is done:
VCAP AR Degradation Assay. Test compounds were pre-dispensed into a Corning CellBind 96-well clear bottom plate (Cat #3300) using an acoustic dispenser to make a 10-point concentration series at 1:3 dilution for each compound. The final top concentration of each compound was 5 μM. DMSO at a final concentration of 0.1% was used as a control. VCaP cells cultured in DMEM with 8% fetal bovine serum (FBS) were seeded at 50K cells per well in a 200 μL volume into the compound plate and incubated at 37° C. in a CO2 incubator for 24 h. The medium was carefully removed from the cells and the plate was placed on ice. […] ice-cold 1× cell lysis buffer from Cell Signaling Technologies (Cat #9803) was added to each well of the cells and the plate was incubated at 4° C. on a shaker for 1 h. Fifteen μL of cell lysate was used for AR ELISA detection using a PathScan Total Sandwich AR ELISA kit (Cell Signaling Technology, Cat #12580). AR levels in compound-treated wells were normalized to that of DMSO control and expressed as percent of control (PoC) (y). A Four Parameter Logistic Model (Sigmoidal Dose-Response Model) was used to determine the compound's DC50, and EC50, using the following equation: y=(A+((B−A)/(1+((C/x)^D)))) • A=YMin (lowest AR level normalized to DMSO control in response to compound treatment, as determined by curve fit) • B=YMax (maximum AR level as determined by curve fit) • C=EC50 • D=Hill Slope • x=compound concentration • EC50=the concentration of compound when y=[…] • DC50=the concentration of the compound when y=50% of DMSO control (50% AR degradation) • y=AR protein level normalized to DMSO control
The lowest measured AR level normalized to DMSO control in response to compound treatment, termed Y value, was used to characterize the compound-mediated AR degradation efficiency.
In general terms: ELISA stands for enzyme-linked immunosorbent assay.

As for `C[C@@H]1CN(CCCO[C@H]2CC[C@H](N3C(=S)N(c4cnc(C#N)c(C(F)(F)F)c4)C(=O)C3(C)C)CC2)C[C@H](C)N1CC(=O)Nc1cccc2c(N3CCC(=O)NC3=O)nn(C)c12` [Cmpd 7, 2-((2R,6S)-4-(3-((trans-4-(3-(6-Cyano-5-(trifluoromethyl)pyridin-3-yl)-5,5-dimethyl-4-oxo-2-thioxoimidazolidin-1-yl)cyclohexyl)oxy)propyl)-2,6-dimethylpiperazin-1-yl)-N-(3-(2,4-dioxotetrahydropyrimidin-1(2H)-yl)-1-methyl-1H-indazol-7-yl)acetamide hydrochloride], the DC50 is not above 2 nM and the Y result is “** (20%<Y≤%)”.

With `C[C@@H]1CN(CCCO[C@H]2CC[C@H](N3C(=S)N(c4ccc(C#N)c(C(F)(F)F)c4)C(=O)C3(C)C)CC2)C[C@H](C)N1CC(=O)Nc1cccc2c(N3CCC(=O)NC3=O)nn(C)c12` [Cmpd 8, 2-((2R,6S)-4-(3-((trans-4-(3-(4-Cyano-3-(trifluoromethyl)phenyl)-5,5-dimethyl-4-oxo-2-thioxoimidazolidin-1-yl)cyclohexyl)oxy)propyl)-2,6-dimethylpiperazin-1-yl)-N-(3-(2,4-dioxotetrahydropyrimidin-1(2H)-yl)-1-methyl-1H-indazol-7-yl)acetamide hydrochloride], the DC50 was not above 2 nM and the Y result is listed as “* (0<Y≤20%)”.

With `C[C@@H]1C[C@H](OCCO[C@H]2CC[C@H](N3C(=S)N(c4cnc(C#N)c(C(F)(F)F)c4)C(=O)C3(C)C)CC2)C[C@H](C)N1CC(=O)Nc1cccc2c(N3CCC(=O)NC3=O)nn(C)c12` [Cmpd 34, 2-((2R,4r,6S)-4-(2-(((trans)-4-(3-(6-Cyano-5-(trifluoromethyl)pyridin-3-yl)-5,5-dimethyl-4-oxo-2-thioxoimidazolidin-1-yl)cyclohexyl)oxy)ethoxy)-2,6-dimethylpiperidin-1-yl)-N-(3-(2,4-dioxotetrahydropyrimidin-1(2H)-yl)-1-methyl-1H-indazol-7-yl)acetamide], the DC50 is not above 2 nM and the Y entry is reported as “** (20%<Y≤%)”.

For the molecule `C[C@@H]1CN(CCC[C@H]2CC[C@H](N3C(=S)N(c4ccc(C#N)c(C(F)(F)F)c4)C(=O)C3(C)C)CC2)C[C@H](C)N1CC(=O)Nc1cccc2c(N3CCC(=O)NC3=O)nn(C)c12` [Cmpd 2, 2-((2R,6S)-4-(3-(trans-4-(3-(4-Cyano-3-(trifluoromethyl)phenyl)-5,5-dimethyl-4-oxo-2-thioxoimidazolidin-1-yl)cyclohexyl)propyl)-2,6-dimethylpiperazin-1-yl)-N-(3-(2,4-dioxotetrahydropyrimidin-1(2H)-yl)-1-methyl-1H-indazol-7-yl)acetamide hydrochloride], the DC50 was 2 to 10 nM and the Y entry is “** (20%<Y≤%)”.

With `C[C@@H]1C[C@@H](CCOC2CCC(N3C(=S)N(c4cnc(C#N)c(C(F)(F)F)c4)C(=O)C3(C)C)CC2)C[C@H](C)N1CC(=O)Nc1cccc2c(N3CCC(=O)NC3=O)nn(C)c12` (stereo partly drawn) [Cmpd 25, 2-((2R,4s,6S)-4-(2-(((trans)-4-(3-(6-Cyano-5-(trifluoromethyl)pyridin-3-yl)-5,5-dimethyl-4-oxo-2-thioxoimidazolidin-1-yl)cyclohexyl)oxy)ethyl)-2,6-dimethylpiperidin-1-yl)-N-(3-(2,4-dioxotetrahydropyrimidin-1(2H)-yl)-1-methyl-1H-indazol-7-yl)acetamide], the DC50 was not above 2 nM and the Y result is “* (0<Y≤20%)”.

Take `C[C@@H]1CN(CCO[C@H]2CC[C@H](N3C(=S)N(c4ccc(C#N)c(S(F)(F)(F)(F)F)c4)C(=O)C3(C)C)CC2)C[C@H](C)N1CC(=O)Nc1cccc2c(N3CCC(=O)NC3=O)nn(C)c12` [Cmpd 21, 2-((2S,6R)-4-(2-((trans-4-(3-(4-Cyano-3-(pentafluoro-λ^6-sulfaneyl)phenyl)-5,5-dimethyl-4-oxo-2-thioxoimidazolidin-1-yl)cyclohexyl)oxy)ethyl)-2,6-dimethylpiperazin-1-yl)-N-(3-(2,4-dioxotetrahydropyrimidin-1(2H)-yl)-1-methyl-1H-indazol-7-yl)acetamide hydrochloride]: the DC50 lay in the range of 100 to 10000 nM and the Y result is listed as “*** (30%<Y<60%)”.

As to `C[C@@H]1C[C@H](OCC[C@H]2CC[C@H](N3C(=S)N(c4cnc(C#N)c(C(F)(F)F)c4)C(=O)C3(C)C)CC2)C[C@H](C)N1CC(=O)Nc1cccc2c(N3CCC(=O)NC3=O)nn(C)c12` [Cmpd 32, 2-((2R,4r,6S)-4-(2-((trans)-4-(3-(6-Cyano-5-(trifluoromethyl)pyridin-3-yl)-5,5-dimethyl-4-oxo-2-thioxoimidazolidin-1-yl)cyclohexyl)ethoxy)-2,6-dimethylpiperidin-1-yl)-N-(3-(2,4-dioxotetrahydropyrimidin-1(2H)-yl)-1-methyl-1H-indazol-7-yl)acetamide], the DC50 is 2 to 10 nM and the Y result is on record as “* (0<Y≤20%)”.

On to `C[C@@H]1CN(CCO[C@H]2CC[C@H](N3C(=S)N(c4ccc(C#N)c(C(F)(F)F)c4)C(=O)C3(C)C)CC2)C[C@H](C)N1CCNc1cccc2c(N3CCC(=O)NC3=O)nn(C)c12` [Cmpd 18, 4-(3-(trans-4-(2-((3R,5S)-4-(2-((3-(2,4-Dioxotetrahydropyrimidin-1(2H)-yl)-1-methyl-1H-indazol-7-yl)amino)ethyl)-3,5-dimethylpiperazin-1-yl)ethoxy)cyclohexyl)-4,4-dimethyl-5-oxo-2-thioxoimidazolidin-1-yl)-2-(trifluoromethyl)benzonitrile hydrochloride], for which the Y entry is given as “*** (30%<Y<60%)”. Also, where the note is “hydrochloride”, the DC50 lay within 10 to 100 nM.

`C[C@@H]1CN(CCC[C@H]2CC[C@H](N3C(=S)N(c4cnc(C#N)c(C(F)(F)F)c4)C(=O)C3(C)C)CC2)C[C@H](C)N1CC(=O)Nc1cccc2c(N3CCC(=O)NC3=O)nn(C)c12` [Cmpd 10, 2-((2R,6S)-4-(3-(trans-4-(3-(6-Cyano-5-(trifluoromethyl)pyridin-3-yl)-5,5-dimethyl-4-oxo-2-thioxoimidazolidin-1-yl)cyclohexyl)propyl)-2,6-dimethylpiperazin-1-yl)-N-(3-(2,4-dioxotetrahydropyrimidin-1(2H)-yl)-1-methyl-1H-indazol-7-yl)acetamide hydrochloride]: the DC50 lay in the range of 2 to 10 nM and the Y entry is “* (0<Y≤20%)”.

On to `Cn1nc(N2CCC(=O)NC2=O)c2cccc(NC(=O)CN3CCN(CCC[C@H]4CC[C@H](N5C(=S)N(c6cnc(C#N)c(C(F)(F)F)c6)C(=O)C5(C)C)CC4)C[C@@H]3C(F)(F)F)c21` [Cmpd 22, 2-((R)-4-(3-(trans)-4-(3-(6-cyano-5-(trifluoromethyl)pyridin-3-yl)-5,5-dimethyl-4-oxo-2-thioxoimidazolidin-1-yl)cyclohexyl)propyl)-2-(trifluoromethyl)piperazin-1-yl)-N-(3-(2,4-dioxotetrahydropyrimidin-1(2H)-yl)-1-methyl-1H-indazol-7-yl)acetamide hydrochloride], for which the DC50 fell in the range of 2 to 10 nM and the Y result is “* (0<Y≤20%)”.

A word on the DC50: it is the concentration giving 50% degradation. Lower therefore signals a more potent degrader.
